This series can be described thus: moisture absorption behavior (microbalance, automatic moisture adsorption apparatus). In kind it is physicochemical. As for the experimental part: Moisture absorption behaviors of the crystals of the present invention (β crystals) and an amorphous substance were measured under relative humidity of from 30 to 90%. Each sample of about 20 mg was used and the relative humidity was changed from 30% with 10% pitch by using a microbalance (automatic moisture adsorption apparatus). The measurement temperature was 25° C. An amount of the change was determined when the sample gave the change of 0.03% or less for 30 minutes (maximum retention time: 180 minutes).

In the case of `CC(=O)O[C@@]12CO[C@@H]1CC[C@@]1(C)[C@@H]3O[C@H](CN(C)C)O[C@@H]3C3=C(C)[C@@H](OC(=O)[C@H](O)[C@@H](NC(=O)OC(C)(C)C)c4ncccc4F)C[C@@](O)([C@@H](OC(=O)c4ccccc4)[C@@H]12)C3(C)C` [β crystals, (1S,2S,3R,4S,5R,8R,9S,10R,13S)-4-acetoxy-2-benzoyloxy-9,10-[(1S)-2-(dimethylamino)ethylidenedioxy]-5,20-epoxy-1-hydroxytax-11-en-13-yl (2R,3S)-3-(tert-butoxycarbonylamino)-3-(3-fluoro-2-pyridyl)-2-hydroxypropionate], for the setting “compared with amorphous substance, as shown in the examples”, the hygroscopicity result was “lower than that of an amorphous substance”.
Regarding `CC(=O)O[C@@]12CO[C@@H]1CC[C@@]1(C)[C@@H]3O[C@H](CN(C)C)O[C@@H]3C3=C(C)[C@@H](OC(=O)[C@H](O)[C@@H](NC(=O)OC(C)(C)C)c4ncccc4F)C[C@@](O)([C@@H](OC(=O)c4ccccc4)[C@@H]12)C3(C)C` [amorphous substance, (1S,2S,3R,4S,5R,8R,9S,10R,13S)-4-acetoxy-2-benzoyloxy-9,10-[(1S)-2-(dimethylamino)ethylidenedioxy]-5,20-epoxy-1-hydroxytax-11-en-13-yl (2R,3S)-3-(tert-butoxycarbonylamino)-3-(3-fluoro-2-pyridyl)-2-hydroxypropionate], for the setting “under high humidity, relative humidity 30 to 90%, 25° C., about 20 mg sample”, the “additional moisture absorbed as compared to the crystals of the present invention (β crystals)” value is “about 1%”.

Values taken from patent publication US7410980B2, “Crystals of taxane derivative and process for their production” (Daiichi Pharmaceutical Co., Ltd., priority 2001, dated 2008).
